For the experiment, the target named is MMP-13 (Homo sapiens, UniProt P45452). The experiment in a line: EnzoLyte 520 Generic MMP Assay Kit, 5-FAM/QXL520 FRET peptide substrate. The class given is biochemical. An excerpt: The EnzoLyte™ 520 Generic MMP Assay Kit (AnaSpec Inc.) can detect the activity of several MMPs including MMP-1, 2, 3, 7, 8, 9, 13, and 14. This kit uses a 5-FAM/QXL™520 fluorescence resonance energy transfer (FRET) peptide as an MMP substrate.

For 33 compounds, IC50 results are on record in patent US8637550B2, “Heteroaryl diamide compounds useful as MMP-13 inhibitors” (Boehringer Ingelheim International GmbH, priority 2008, dated 2014).

As usually defined, the pIC50 is the IC50 on a negative log10 scale, so that one unit is a factor of ten. High values mean a low IC50, low ones a high IC50.

pIC50: −log10 of the molar value.

Turning to `CNC(=O)[C@@H](NC(=O)c1ccc(-c2ccc(-c3cccnc3)cn2)o1)C(C)C` [5-[3,3′]Bipyridinyl-6-yl-furan-2-carboxylic acid ((S)-2-methyl-1-methylcarbamoyl-propyl)-amide], the pIC50 is 6.85. Under `CNC(=O)[C@@H](NC(=O)c1ccc(-c2ccc(-c3ccncc3)cn2)o1)C(C)C` [5-[3,4′]Bipyridinyl-6-yl-furan-2-carboxylic acid ((S)-2-methyl-1-methylcarbamoyl-propyl)-amide] stands 7.21; under `CNC(=O)[C@@H](NC(=O)c1ccc(-c2ccc(-c3ccncc3)cn2)o1)C1CCCCC1` [5-[3,4′]Bipyridinyl-6-yl-furan-2-carboxylic acid ((S)-cyclohexyl-methylcarbamoyl-methyl)-amide], 7.64. `CNC(=O)[C@@H](NC(=O)c1ccc(-c2cccc(CN)c2)o1)C1CCOCC1` [5-[3-(Aminomethyl)phenyl]-N-[(1S)-2-(methylamino)-2-oxo-1-(tetrahydro-2H-pyran-4-yl)ethyl]-2-furamide] gave a pIC50 of 6.38. In turn, `CNC(=O)[C@@H](NC(=O)c1ccc(-c2cccc(CNC(=O)c3ccccc3)c2)o1)C(C)C` [5-[3-(Benzoylamino-methyl)-phenyl]-furan-2-carboxylic acid ((S)-2-methyl-1-methylcarbamoyl-propyl)-amide] gave a pIC50 of 6.69. Under `CNC(=O)[C@@H](NC(=O)c1ccc(-c2ccc(OCc3cc(C)nn3C)cc2)o1)C1CCCCC1` [5-[4-(2,5-Dimethyl-2H-pyrazol-3-ylmethoxy)-phenyl]-furan-2-carboxylic acid ((S)-cyclohexyl-methylcarbamoyl-methyl)-amide] stands 8.22; under `CNC(=O)[C@@H](NC(=O)c1ccc(-c2ccc(OCc3[nH]cnc3C)cc2)o1)C1CCOCC1` [5-[4-(5-Methyl-3H-imidazol-4-ylmethoxy)-phenyl]-furan-2-carboxylic acid [(S)-methylcarbamoyl-(tetrahydro-pyran-4-yl)-methyl]-amide], 7.57; under `CNC(=O)[C@@H](NC(=O)c1ccc(-c2ccc(OCc3cc(C)n(C)n3)cn2)o1)C(C)C` [5-[5-(1,5-Dimethyl-1H-pyrazol-3-ylmethoxy)-pyridin-2-yl]-furan-2-carboxylic acid ((S)-2-methyl-1-methylcarbamoyl-propyl)-amide], 7.10. Under `CNC(=O)[C@@H](NC(=O)c1ccc(-c2ccc(OCc3cc4ccccc4o3)cn2)o1)C1CCCCC1` [5-[5-(1-Benzofuran-2-ylmethoxy)pyridin-2-yl]-N-[(1S)-1-cyclohexyl-2-(methylamino)-2-oxoethyl]furan-2-carboxamide] stands 8.22; under `CNC(=O)[C@@H](NC(=O)c1ccc(-c2ccc(-c3ccc4[nH]ccc4c3)cn2)o1)C(C)C` [5-[5-(1H-Indol-5-yl)-pyridin-2-yl]-furan-2-carboxylic acid ((S)-2-methyl-1-methylcarbamoyl-propyl)-amide], 6.59; under `CNC(=O)[C@@H](NC(=O)c1ccc(-c2ccc(-c3ccc4cc[nH]c4c3)cn2)o1)C(C)C` [5-[5-(1H-Indol-6-yl)-pyridin-2-yl]-furan-2-carboxylic acid ((S)-2-methyl-1-methylcarbamoyl-propyl)-amide], 7.04. Under `CNC(=O)[C@@H](NC(=O)c1ccc(-c2ccc(OCc3cc(C)nn3C)cn2)o1)C1CCCCC1` [5-[5-(2,5-Dimethyl-2H-pyrazol-3-ylmethoxy)-pyridin-2-yl]-furan-2-carboxylic acid ((S)-cyclohexyl-methylcarbamoyl-methyl)-amide] stands 8.70; under `CNC(=O)[C@@H](NC(=O)c1ccc(-c2ccc(-c3cnc(N)nc3)cn2)o1)C(C)C` [5-[5-(2-Amino-pyrimidin-5-yl)-pyridin-2-yl]-furan-2-carboxylic acid ((S)-2-methyl-1-methylcarbamoyl-propyl)-amide], 6.42. Consider `CNC(=O)[C@@H](NC(=O)c1ccc(-c2ccc(-c3cc(F)cc(F)c3)cn2)o1)C(C)C` [5-[5-(3,5-Difluoro-phenyl)-pyridin-2-yl]-furan-2-carboxylic acid ((S)-2-methyl-1-methylcarbamoyl-propyl)-amide], for which the pIC50 is 6.43. `CNC(=O)[C@@H](NC(=O)c1ccc(-c2ccc(-c3cccc(F)c3)cn2)o1)C(C)C` [5-[5-(3-Fluoro-phenyl)-pyridin-2-yl]-furan-2-carboxylic acid ((S)-2-methyl-1-methylcarbamoyl-propyl)-amide] gave a negative logarithm of the IC50 (pIC50) of 6.49. Under `CNC(=O)[C@@H](NC(=O)c1ccc(-c2ccc(-c3ccc(C#N)cc3)cn2)o1)C(C)C` [5-[5-(4-Cyano-phenyl)-pyridin-2-yl]-furan-2-carboxylic acid ((S)-2-methyl-1-methylcarbamoyl-propyl)-amide] stands 7.66. `CCOc1ccc(-c2ccc(-c3ccc(C(=O)N[C@H](C(=O)NC)C(C)C)o3)nc2)cc1` [5-[5-(4-Ethoxy-phenyl)-pyridin-2-yl]-furan-2-carboxylic acid ((S)-2-methyl-1-methylcarbamoyl-propyl)-amide] showed a pIC50 of 7.33. For `CNC(=O)[C@@H](NC(=O)c1ccc(-c2ccc(-c3ccc(F)cc3)cn2)o1)C(C)C` [5-[5-(4-Fluoro-phenyl)-pyridin-2-yl]-furan-2-carboxylic acid ((S)-2-methyl-1-methylcarbamoyl-propyl)-amide] the value was 7.11; for `CNC(=O)[C@@H](NC(=O)c1ccc(-c2ccc(-c3ccc(OC(C)C)cc3)cn2)o1)C(C)C` [5-[5-(4-Isopropoxy-phenyl)-pyridin-2-yl]-furan-2-carboxylic acid ((S)-2-methyl-1-methylcarbamoyl-propyl)-amide], 7.54. As for `CNC(=O)[C@@H](NC(=O)c1ccc(-c2ccc(-c3ccc(C)cc3)cn2)o1)C(C)C` [5-[5-(4-Methyl-phenyl)-pyridin-2-yl]-furan-2-carboxylic acid ((S)-2-methyl-1-methylcarbamoyl-propyl)-amide], the negative logarithm of the IC50 (pIC50) is 6.74. Turning to `CNC(=O)[C@@H](NC(=O)c1ccc(-c2ccc(OCc3[nH]cnc3C)cn2)o1)C1CCOCC1` [5-[5-(5-Methyl-3H-imidazol-4-ylmethoxy)-pyridin-2-yl]-furan-2-carboxylic acid [(S)-methylcarbamoyl-(tetrahydro-pyran-4-yl)-methyl]-amide], the pIC50 is 6.38. For `CCNC(=O)[C@@H](NC(=O)c1ccc(-c2ccc(OCc3ccccc3)cn2)o1)C1CCCCC1` [5-[5-(Benzyloxy)pyridin-2-yl]-N-[(1S)-1-cyclohexyl-2-(ethylamino)-2-oxoethyl]furan-2-carboxamide] the value was 7.77; for `CNC(=O)[C@@H](NC(=O)c1ccc(-c2ccc(OCc3ccccc3)cn2)o1)C1CCCCC1` [5-[5-(Benzyloxy)pyridin-2-yl]-N-[(1S)-1-cyclohexyl-2-(methylamino)-2-oxoethyl]furan-2-carboxamide], 8.00.

In the case of `CNC(=O)[C@@H](NC(=O)c1ccc(-c2ccc(OCc3ccccc3)cn2)o1)C1CCOCC1` [5-[5-(Benzyloxy)pyridin-2-yl]-N-[(1S)-2-(methylamino)-2-oxo-1-(tetrahydro-2H-pyran-4-yl)ethyl]furan-2-carboxamide], the pIC50 is 8.52. For `CNC(=O)[C@@H](NC(=O)c1ccc(-c2cccc(CNC(=O)c3ccc(C)c(C)c3)c2)o1)C(C)C` [5-{3-[(3,4-Dimethyl-benzoylamino)-methyl]-phenyl}-furan-2-carboxylic acid ((S)-2-methyl-1-methylcarbamoyl-propyl)-amide] the value was 6.81. For `CNC(=O)[C@@H](NC(=O)c1ccc(-c2cccc(CNC(=O)c3cccc(C#N)c3)c2)o1)C(C)C` [5-{3-[(3-Cyano-benzoylamino)-methyl]-phenyl}-furan-2-carboxylic acid ((S)-2-methyl-1-methylcarbamoyl-propyl)-amide] the value was 6.80. As to `CNC(=O)[C@@H](NC(=O)c1ccc(-c2cccc(CNC(=O)c3cccc(N(C)C)c3)c2)o1)C(C)C` [5-{3-[(3-Dimethylamino-benzoylamino)-methyl]-phenyl}-furan-2-carboxylic acid ((S)-2-methyl-1-methylcarbamoyl-propyl)-amide], the pIC50 is 6.67.

As to `CNC(=O)[C@@H](NC(=O)c1ccc(-c2cccc(CNC(=O)c3cccc(C(C)C)c3)c2)o1)C(C)C` [5-{3-[(3-Isopropyl-benzoylamino)-methyl]-phenyl}-furan-2-carboxylic acid ((S)-2-methyl-1-methylcarbamoyl-propyl)-amide], the negative-log IC50 (pIC50) is 6.80.

`CNC(=O)[C@@H](NC(=O)c1ccc(-c2cccc(CNC(=O)c3cccc(OC)c3)c2)o1)C(C)C` [5-{3-[(3-Methoxy-benzoylamino)-methyl]-phenyl}-furan-2-carboxylic acid ((S)-2-methyl-1-methylcarbamoyl-propyl)-amide] gave a pIC50 of 6.79.

Compound `CNC(=O)[C@@H](NC(=O)c1ccc(-c2cccc(CNC(=O)c3cccc(C)c3)c2)o1)C(C)C` [5-{3-[(3-Methyl-benzoylamino)-methyl]-phenyl}-furan-2-carboxylic acid ((S)-2-methyl-1-methylcarbamoyl-propyl)-amide] gave a pIC50 of 6.88. For `CNC(=O)[C@@H](NC(=O)c1ccc(-c2cccc(CNC(=O)c3ccc(F)c(C(F)(F)F)c3)c2)o1)C(C)C` [5-{3-[(3-Trifluoromethyl-4-fluoro-benzoylamino)-methyl]-phenyl}-furan-2-carboxylic acid ((S)-2-methyl-1-methylcarbamoyl-propyl)-amide] the value was 6.67. In the case of `CNC(=O)[C@@H](NC(=O)c1ccc(-c2cccc(CNC(=O)c3cccc(C(F)(F)F)c3)c2)o1)C(C)C` [5-{3-[(3-Trifluoromethyl-benzoylamino)-methyl]-phenyl}-furan-2-carboxylic acid ((S)-2-methyl-1-methylcarbamoyl-propyl)-amide], the pIC50 is 7.31. `CNC(=O)[C@@H](NC(=O)c1ccc(-c2cccc(CNC(=O)c3ccc(C#N)cc3)c2)o1)C(C)C` [5-{3-[(4-Cyano-benzoylamino)-methyl]-phenyl}-furan-2-carboxylic acid ((S)-2-methyl-1-methylcarbamoyl-propyl)-amide]: the pIC50 was 6.73.
